Laboratory results from PMC9182199, “Borylated 2,3,4,5-Tetrachlorophthalimide and Their 2,3,4,5-Tetrachlorobenzamide Analogues: Synthesis, Their Glycosidase Inhibition and Anticancer Properties in View to Boron Neutron Capture Therapy” (Molecules, 2022).
Like-named read-outs stand apart in the source and are kept apart here.

How the values were obtained:
Du145 = assay: MTT cell growth inhibition: Du145; type: cell-based; conditions: 72 h; for inhibition at 25 µM: Homo sapiens, DU-145, Du145 prostate carcinoma, read-out: Percentage (%) Cell Growth Inhibition in response to 25 µM of Drug; for Percentage (%) Cell Growth Inhibition in response to 25 µM of Drug: Du145 prostate carcinoma
Protocol: (§1) All test agents were prepared as stock solutions (20 mM) in dimethyl sulfoxide (DMSO) and stored at −20 °C. Cell lines used in the study included HT29 (colorectal carcinoma); U87, SJ-G2, (glioblastoma); MCF-7, (breast carcinoma); A2780 (ovarian carcinoma); H460 (lung carcinoma); A431 (skin carcinoma); Du145 (prostate carcinoma); BE2-C (neuroblastoma); MiaPaCa-2 (pancreatic carcinoma); and SMA560 (spontaneous murine astrocytoma), together with the one non-tumour-derived normal breast cell line (MCF10A). All cell lines were incubated in a humidified atmosphere 5% CO2 at 37 °C. The cancer cell lines were maintained in Dulbecco’s modified Eagle’s medium (DMEM; Sigma, Australia) supplemented with foetal bovine serum (10%), sodium pyruvate (10 mM), penicillin (100 IUmL^−1), streptomycin (100 µg mL^−1) and L-glutamine (2 mM).
(§2) Growth inhibition was determined by plating cells in duplicate in medium (100 µL) at a density of 2500–4000 cells per well in 96-well plates. On day 0 (24 h after plating), when the cells were in logarithmic growth, medium (100 µL) with or without the test agent was added to each well. After 72 h drug exposure, growth inhibitory effects were evaluated using the MTT (3-(4,5-dimethyltiazol-2-yl)-2,5-diphenyltetrazolium bromide) assay and absorbance read at 540 nm. The percentage growth inhibition was calculated at a fixed concentration of 25 µM, based on the difference between the optical density values on day 0 and those at the end of drug exposure. Each data point is the mean ± the standard error of the mean (SEM) calculated from three replicates which were performed on separate occasions and separate cell line passages.

[1] = tested on: rat intestinal maltase α-glucosidase; assay: Glycosidase inhibition, laboratory 1: rat intestinal maltase; type: biochemical; conditions: methanol; for IC50: rat intestinal maltase α-glucosidase
Description: (§3) The enzymes α-glucosidase (from yeast), β-glucosidases (from almond and bovine liver), α-galactosidase (from coffee beans), β-galactosidase (from bovine liver), α-mannosidase (from Jack bean), β-mannosidase (from snail), α-L-rhamnosidase (from Penicillium decumbens), α-L-fucosidase (from bovine kidney), trehalase (from porcine kidney), β-glucuronidases (from E. coli and bovine liver), amyloglucosidase (from A. niger), para-nitrophenyl glycosides, and various disaccharides were purchased from Sigma-Aldrich Co (St Louis, MO, USA).
(§4) Brush border membranes were prepared from the rat small intestine according to the method of Kessler et al. and were assayed at pH 6.8 for rat intestinal maltase using maltose. For rat intestinal maltase, porcine kidney trehalase, and A. niger amyloglucosidase activities, the reaction mixture contained 25 mM maltose and the appropriate amount of enzyme, and the incubations were performed for 10–30 min at 37 °C. The reaction was stopped by heating at 100 °C for 3 min. After centrifugation (600× g; 10 min), the resulting reaction mixture was added to the Glucose CII-test Wako (Wako Pure Chemical Ind., Osaka, Japan). The absorbance at 505 nm was measured to determine the amount of the released D-glucose. Other glycosidase activities were determined using an appropriate para-nitrophenyl glycoside as substrate at the optimum pH of each enzyme. The reaction mixture contained 2 mM of the substrate and the appropriate amount of enzyme. The reaction was stopped by addition of 400 mM Na2CO3. The released para-nitrophenol was measured spectrometrically at 400 nm. All reactions run in methanol.

MCF10A = assay: MTT cell growth inhibition: MCF10A normal breast; type: cell-based; conditions: 72 h; for inhibition at 25 µM: Homo sapiens, MCF-10A, read-out: Percentage (%) Cell Growth Inhibition in response to 25 µM of Drug; for Percentage (%) Cell Growth Inhibition in response to 25 µM of Drug: MCF10A breast (normal), MTT
Protocol: as §1
The non-cancer MCF10A cell line was maintained in DMEM:F12 (1:1) cell culture media, 5% heat-inactivated horse serum, supplemented with penicillin (50 IUmL^−1), streptomycin (50 µg mL^−1), HEPES (20 mM), L-glutamine (2 mM), epidermal growth factor (20 ng mL^−1), hydrocortisone (500 ng mL^−1), cholera toxin (100 ng mL^−1) and insulin ([…]).
as §2

SJ-G2 = assay: MTT cell growth inhibition: SJ-G2; type: cell-based; conditions: SJ-G2 glioblastoma, 72 h; for inhibition at 25 µM: read-out: Percentage (%) Cell Growth Inhibition in response to 25 µM of Drug
Protocol: as §1, §2

BE2-C = assay: MTT cell growth inhibition: BE2-C; type: cell-based; conditions: BE2-C neuroblastoma, 72 h; for inhibition at 25 µM: Homo sapiens, BE(2)-C, read-out: Percentage (%) Cell Growth Inhibition in response to 25 µM of Drug
Protocol: as §1, §2

A2780 = assay: MTT cell growth inhibition: A2780; type: cell-based; conditions: A2780 ovarian carcinoma; for inhibition at 25 µM / GI50: Homo sapiens; for inhibition at 25 µM / Percentage (%) Cell Growth Inhibition in response to 25 µM of Drug: 72 h, MTT; for inhibition at 25 µM: read-out: Percentage (%) Cell Growth Inhibition in response to 25 µM of Drug; for GI50: read-out: GI50 = Concentration (µM) that inhibits cell growth by 50%, dose response
Protocol: as §1, §2

E. coli β-glucuronidase = biological target: T1, E. coli β-glucuronidase (Escherichia coli, UniProt P05804); assay: Glycosidase inhibition, laboratory 1: E. coli β-glucuronidase; type: biochemical; conditions: for inhibition at 10 µM: read-out: inhibition % at 10 μM; for inhibition at 100 µM: read-out: inhibition % at 100 μM
T1 construct: purchased Sigma-Aldrich Co
Description: as §3, §4

yeast α-glucosidase = biological target: T2, yeast α-glucosidase (Saccharomyces cerevisiae, UniProt P53341); assay: Glycosidase inhibition, laboratory 1: yeast α-glucosidase; type: biochemical; conditions: methanol
T2 construct: purchased Sigma
Description: as §3, §4

[2] = biological target: T3, bovine kidney α-L-fucosidase (Bos taurus, UniProt Q2KIM0); assay: Glycosidase inhibition, laboratory 1: α-L-fucosidase; type: biochemical; conditions: methanol
T3 construct: purchased Sigma-Aldrich Co
T3 sequence (Q2KIM0 23-468): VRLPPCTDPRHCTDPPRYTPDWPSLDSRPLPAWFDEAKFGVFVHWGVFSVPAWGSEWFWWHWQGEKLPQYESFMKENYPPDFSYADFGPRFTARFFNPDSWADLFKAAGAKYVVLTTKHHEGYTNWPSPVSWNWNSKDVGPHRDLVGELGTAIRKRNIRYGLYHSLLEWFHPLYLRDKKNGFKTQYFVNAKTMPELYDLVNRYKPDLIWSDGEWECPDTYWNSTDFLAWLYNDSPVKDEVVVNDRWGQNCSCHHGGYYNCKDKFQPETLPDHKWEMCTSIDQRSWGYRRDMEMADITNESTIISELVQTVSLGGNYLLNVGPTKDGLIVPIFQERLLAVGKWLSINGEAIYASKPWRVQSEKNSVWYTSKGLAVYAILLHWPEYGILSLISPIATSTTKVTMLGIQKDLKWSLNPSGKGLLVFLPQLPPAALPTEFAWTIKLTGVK
Description: as §3, §4

[3] = E. coli β-glucuronidase, 100 μM, methanol

T2 sequence (P53341 whole entry): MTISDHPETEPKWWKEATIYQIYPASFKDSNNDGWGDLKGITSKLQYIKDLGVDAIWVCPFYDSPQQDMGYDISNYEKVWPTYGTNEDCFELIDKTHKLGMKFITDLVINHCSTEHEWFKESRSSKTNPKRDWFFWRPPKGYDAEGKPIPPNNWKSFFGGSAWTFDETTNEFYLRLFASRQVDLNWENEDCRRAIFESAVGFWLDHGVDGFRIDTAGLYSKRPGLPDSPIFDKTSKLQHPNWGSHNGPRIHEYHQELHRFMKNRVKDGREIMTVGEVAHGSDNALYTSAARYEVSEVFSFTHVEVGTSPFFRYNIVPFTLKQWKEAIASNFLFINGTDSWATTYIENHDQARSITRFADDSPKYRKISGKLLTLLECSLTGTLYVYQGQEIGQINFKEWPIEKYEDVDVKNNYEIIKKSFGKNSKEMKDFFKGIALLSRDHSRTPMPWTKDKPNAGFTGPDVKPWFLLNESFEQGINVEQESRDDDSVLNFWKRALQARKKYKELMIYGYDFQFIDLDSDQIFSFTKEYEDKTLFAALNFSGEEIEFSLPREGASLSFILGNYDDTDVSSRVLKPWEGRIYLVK
T1 sequence (P05804 whole entry): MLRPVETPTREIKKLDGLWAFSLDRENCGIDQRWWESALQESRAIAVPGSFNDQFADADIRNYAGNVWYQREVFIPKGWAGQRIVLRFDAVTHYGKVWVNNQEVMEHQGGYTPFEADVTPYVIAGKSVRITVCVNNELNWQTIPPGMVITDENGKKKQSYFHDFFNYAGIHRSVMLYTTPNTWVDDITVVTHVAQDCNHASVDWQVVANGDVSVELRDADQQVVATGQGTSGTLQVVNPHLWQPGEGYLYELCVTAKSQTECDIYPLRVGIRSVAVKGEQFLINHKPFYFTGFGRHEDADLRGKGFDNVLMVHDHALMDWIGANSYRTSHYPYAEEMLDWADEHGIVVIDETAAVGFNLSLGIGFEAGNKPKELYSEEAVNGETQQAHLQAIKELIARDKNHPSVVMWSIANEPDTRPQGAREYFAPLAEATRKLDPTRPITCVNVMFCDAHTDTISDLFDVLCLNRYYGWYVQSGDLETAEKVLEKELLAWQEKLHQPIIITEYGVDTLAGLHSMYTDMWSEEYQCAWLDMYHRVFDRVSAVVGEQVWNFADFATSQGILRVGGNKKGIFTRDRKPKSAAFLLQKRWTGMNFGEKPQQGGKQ

Compound	inhibition at 25 µM (Du145)	inhibition % at 100 μM ([1]; rat intestinal maltase)	inhibition at 25 µM (MCF10A)	inhibition at 25 µM (SJ-G2)	inhibition at 25 µM (BE2-C)	inhibition at 25 µM (A2780)	GI50 (A2780)	IC50 [1]	inhibition at 100 µM (yeast α-glucosidase; 100 μM)	inhibition at 100 µM ([2]; 100 μM)	other results
N[C@@H](Cc1ccc(B(O)O)cc1)C(=O)O [BPA, 4-borono-L-phenylalanine, reference compound]	19 ± 10%	^cNI ^d(0%)	4 ± 1%	5 ± 8%	13 ± 10%	4 ± 1%					
N[C@@H](Cc1ccc(B(O)O)cc1)C(=O)O [^10B-BPA, reference compound]		^cNI ^d (0%)									inhibition % at 100 μM (E. coli β-glucuronidase; [3]): ^cNI ^d (2.4%); Percentage (%) Cell Growth Inhibition in response to 25 µM of Drug (Du145): 15 ± 9%; Percentage (%) Cell Growth Inhibition in response to 25 µM of Drug (MCF10A): <0%; inhibition % at 100 μM (yeast α-glucosidase; 100 μM): ^cNI ^d (0%); Percentage (%) Cell Growth Inhibition in response to 25 µM of Drug (SJ-G2): 5 ± 10%; Percentage (%) Cell Growth Inhibition in response to 25 µM of Drug (BE2-C): 10 ± 6%; Percentage (%) Cell Growth Inhibition in response to 25 µM of Drug (A2780): 8 ± 4%; inhibition % at 100 μM ([2]; 100 μM): ^cNI ^d (0%)
CC1(C)OB(c2cccc(CN3C(=O)c4c(Cl)c(Cl)c(Cl)c(Cl)c4C3=O)c2)OC1(C)C [meta 3, 4,5,6,7-Tetrachloro-2-(3-(4,4,5,5-tetramethyl-1,3,2-dioxaborolan-2-yl)benzyl)isoindoline-1,3-dione]	43 ± 13%		69 ± 7%	35 ± 4%	45 ± 2%	70 ± 2%	19 ± 0.33 µM				inhibition at 10 µM (E. coli β-glucuronidase): 6.1%; inhibition % at 10 μM ([1]; rat intestinal maltase): ^cNI ^d (22.1%); inhibition at 10 µM (yeast α-glucosidase): 0%; inhibition at 10 µM [2]: 4.7%
CC1(C)OB(c2cccc(NC(=O)c3cc(Cl)c(Cl)c(Cl)c3Cl)c2)OC1(C)C [meta 5, 2,3,4,5-tetrachloro-N-(3-(4,4,5,5-tetramethyl-1,3,2-dioxaborolan-2-yl)phenyl)benzamide]	< 0%		< 0%	< 0%	3 ± 4%	49 ± 4%		274 µM	12.8%	3.3%	IC50 (E. coli β-glucuronidase; E. coli β-glucuronidase, methanol): 932 µM
CC1(C)OB(c2ccccc2NC(=O)c2cc(Cl)c(Cl)c(Cl)c2Cl)OC1(C)C [ortho 5, 2,3,4,5-Tetrachloro-N-(2-(4,4,5,5-tetramethyl-1,3,2-dioxaborolan-2-yl)phenyl)benzamide]	> 100%		58 ± 9%	92 ± 5%	> 100%	97 ± 2%	16 ± 1.2 µM				inhibition at 10 µM (E. coli β-glucuronidase; E. coli β-glucuronidase, 10 μM, methanol): 3.8%; inhibition % at 10 μM ([1]; rat intestinal maltase): ^cNI ^d(3%); inhibition at 10 µM (yeast α-glucosidase): 0%; inhibition at 10 µM [2]: 0%
CC1(C)OB(c2ccccc2CNC(=O)c2cc(Cl)c(Cl)c(Cl)c2Cl)OC1(C)C [ortho 8, 2,3,4,5-tetrachloro-N-(2-(4,4,5,5-tetramethyl-1,3,2-dioxaborolan-2-yl)benzyl)benzamide]	< 0%		< 0%	< 0%	2 ± 5%	19 ± 10%		305 µM	0%	19.9%	inhibition at 100 µM (E. coli β-glucuronidase): 41.7%
CC1(C)OB(c2ccc(CN3C(=O)c4c(Cl)c(Cl)c(Cl)c(Cl)c4C3=O)cc2)OC1(C)C [para 3, 4,5,6,7-Tetrachloro-2-(4-(4,4,5,5-tetramethyl-1,3,2-dioxaborolan-2-yl)benzyl)isoindoline-1,3-dione]	> 100%	^aNI ^b (12.2%)	> 100%	> 100%	> 100%	> 100%	11 ± 1.1 µM		0%	0%	inhibition at 100 µM (E. coli β-glucuronidase): 2.2%
CC1(C)OB(c2ccc(NC(=O)c3cc(Cl)c(Cl)c(Cl)c3Cl)cc2)OC1(C)C [para 5, 2,3,4,5-tetrachloro-N-(4-(4,4,5,5-tetramethyl-1,3,2-dioxaborolan-2-yl)phenyl)benzamide]	1 ± 13%		2 ± 11%	28 ± 6%	54 ± 1%	50 ± 1%		188 µM	0%	5.1%	inhibition at 100 µM (E. coli β-glucuronidase; [3]): 45.5%
Borocaptate sodium [BSH, reference compound]											inhibition % at 1000 μM (E. coli β-glucuronidase; E. coli β-glucuronidase, 1000 μM, methanol): ^aNI ^b (6%); Percentage (%) Cell Growth Inhibition in response to 25 µM of Drug (Du145): 0 ± 8%; inhibition % at 1000 μM ([1]; rat intestinal maltase, 1000 μM): ^aNI ^b(0%); Percentage (%) Cell Growth Inhibition in response to 25 µM of Drug (MCF10A): 8 ± 3%; inhibition % at 1000 μM (yeast α-glucosidase; 1000 μM): ^aNI ^b(6.9%); Percentage (%) Cell Growth Inhibition in response to 25 µM of Drug (SJ-G2): 3 ± 8%; Percentage (%) Cell Growth Inhibition in response to 25 µM of Drug (BE2-C): 10 ± 6%; Percentage (%) Cell Growth Inhibition in response to 25 µM of Drug (A2780): 2 ± 5%; inhibition % at 1000 μM ([2]; 1000 μM): ^aNI ^b (0%)
